Values of other authors as cited in PMC10017685 (Nature Communications, 2023).
Like-named read-outs stand apart in the source and are kept apart here.

Tested on: human erythrocytes
Parameters: method as in DBAASP
Settings: cited from earlier work
[1] = toxicity class label 1 or 0, meaning of the labels not given, DBAASP HC50 data, human erythrocytes, ref DBAASP

Sequence	Class (dedicated toxicity dataset used for toxicity classifier evaluation) [1]	Class (dedicated toxicity dataset used for toxicity classifier evaluation)
KWKVFKKIEKMIRNIRNKIAK [DBAASP_11865]	0	–
LALKSGGWLRLFGLKDKKH [DBAASP_6706]	0	–
LKKVLKAAA [DBAASP_7359]	0	–
LLGMIPLAISAISALSKL [DBAASP_3893]	0	–
LLGPVLGLVSNVLGGLL [DBAASP_12136]	0	–
LLKKVLKAAA [DBAASP_7357]	0	–
LLKKVLKAAA [DBAASP_7358]	1	–
LPFFLLSLIPSAISAIKKI [DBAASP_8437]	1	–
LWGALLGLGSTLLSKL [DBAASP_18167]	1	–
LWKIGKKIWRVLWNWR [DBAASP_17519]	1	–
LWKIWKKIWRVGWNWR [DBAASP_17513]	0	–
LWKIWKKIWRVWKNWR [DBAASP_17516]	1	–
LWKIWWKIWRVWKNWR [DBAASP_17523]	1	–
MPLSWFFPRTWGKR [DBAASP_9722]	0	–
NILNTIINLAKKIL [DBAASP_3562]	0	–
NLLGSLLKTGLKVGSNLL [DBAASP_5712]	0	–
PFKIDIHLGGY [DBAASP_7635]	0	–
RAGLQFPVGRVHRLLRK [DBAASP_7651]	0	–
RFCVYAYVRVRGVLVRYRRCF [DBAASP_13515]	0	–
RFRRLRKKTRKRLKKI [DBAASP_7143]	0	–
RIGVLLARLPKLFSLFKLMGKKV [DBAASP_4189]	0	–
RIRFPWPWRWPWWPRFRG [DBAASP_8616]	0	–
RIRIRWIIR [DBAASP_17706]	0	–
RIRWILRYWRWS [DBAASP_10701]	0	–
RIWFQNRRMRWRR [DBAASP_8801]	0	–

Sequence	Class (dedicated toxicity dataset used for toxicity classifier evaluation) [1]	Class (dedicated toxicity dataset used for toxicity classifier evaluation)
RPPQFTRAQWFAIQHISLN [DBAASP_6545]	1	–
RQIKIWFQNRRLKWKK [DBAASP_8797]	0	–
RQIKIWFQNRRMKWKK [DBAASP_6203]	0	–
RQIRIWFQNRRMRWRR [DBAASP_8798]	0	–
RQYMRQIEQALRYGYRISRR [DBAASP_14411]	0	–
RRGCFRVCYRGFCFQRCR [DBAASP_12233]	–	0
RRWCVYAYVRVRGVRVYAYVCW [DBAASP_13506]	0	–
RRWRIVVIRVRR [DBAASP_1204]	–	0
RRWYRRWYRRWY [DBAASP_17315]	0	–
RWCRRYRVRVRGVLVYAYVCW [DBAASP_13505]	0	–
RWCVYAYVRVRGVLVRYRRCW [DBAASP_13517]	0	–
RWFKIQLQIRRWKNKK [DBAASP_8805]	0	–
RWFKIQMQIRRWKNKK [DBAASP_8804]	0	–
RWFRIQLQIRRWRNRR [DBAASP_8807]	0	–
RWGKWFKKATHVGKHVGKAALTAYL [DBAASP_997]	0	–
RWQWRWQWR [DBAASP_10099]	0	–
RWRRFWRR [DBAASP_12823]	0	–
RWWLRRIW [DBAASP_10630]	0	–
SAVGRHGRRFGLRKHRKH [DBAASP_3348]	0	–
SAVGRHLRRFGLRKHRKH [DBAASP_7659]	0	–
SAVGRHLRRFLLRKHRKH [DBAASP_7660]	0	–
SAVLRHLRRFLLRKHRKH [DBAASP_7661]	0	–
SAVWRHWRRFWLRKHRKH [DBAASP_9988]	0	–
SAVWRRWRRFWLRKRRKR [DBAASP_9990]	0	–
SAVWRWRRFWLRKRK [DBAASP_9989]	0	–

Sequence	Class (dedicated toxicity dataset used for toxicity classifier evaluation) [1]	Class (dedicated toxicity dataset used for toxicity classifier evaluation)
SFLTTVKKLVTNLAAL [DBAASP_13626]	0	–
SILPTIVSFLSKVF [DBAASP_13348]	1	–
SKVGRHGRRFGHRAHRKL [DBAASP_7662]	0	–
SKVGRHLRRFGHRAHRKL [DBAASP_7663]	0	–
SKVGRHLRRFLHRAHRKL [DBAASP_7664]	0	–
SKVLRHLRRFLHRAHRKL [DBAASP_7665]	0	–
SKVWRHWRRFWHRAHRKK [DBAASP_8105]	0	–
SKVWRHWRRFWHRAHRKL [DBAASP_14980]	0	–
SKVWRHWRRFWHRAHRLH [DBAASP_9101]	0	–
SYERKINRHFKTLKKNLKKK [DBAASP_13931]	0	–
TIAMRAINNYRWRSKNQNTFLR [DBAASP_6544]	1	–
VCKRWKKWKRKWKKWCV [DBAASP_16449]	0	–
VKKFAWWWAFLKK [DBAASP_11303]	0	–
VKKFAWWWPFLKK [DBAASP_11304]	0	–
VKKFPWWWAFLKK [DBAASP_11305]	0	–
VKKFPWWWPFLKK [DBAASP_5136]	0	–
VKRFKKFFRKFKKFV [DBAASP_16446]	0	–
VKRFKKFFRKFKKSV [DBAASP_8772]	0	–
VKRFKKFFRKLKKSV [DBAASP_4328]	0	–
VKRWKKFWRKWKKWW [DBAASP_8774]	0	–
VKRWKKWFRKWKKWV [DBAASP_16447]	0	–
VKRWKKWKRKWKKWV [DBAASP_16448]	0	–
VKRWKKWRWKWKKWV [DBAASP_8775]	–	0
VKRWKKWWRKLKKSV [DBAASP_8773]	0	–
